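Tested at 5 concentrations; 48 h exposure; 96-well plates; endpoints linearly interpolated, else capped at highest concentration. GI50 is the concentration that inhibits growth by half.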 Activity calls are given as the source filed them. No stated cut-off is given here; in the data, active = GI50 up to about 1.1 µM and inactive = higher.
Experiments:
Assay in all cases: DTP human tumour cell line panel, 48 h
Hs-578T = system: Hs-578T
SK-MEL-28 = system: SK-MEL-28
HCC 2998 = system: HCC 2998
A498 = system: A498
SR = system: SR
HOP-92 = system: HOP-92
SK-OV-3 = system: SK-OV-3
CAKI-1 = system: CAKI-1
M19-MEL = system: M19-MEL
PC-3 = system: PC-3
HT-29 = system: HT-29
NCI/ADR-RES = system: NCI/ADR-RES
KM-20L2 = system: KM-20L2
NCI-H460 = system: NCI-H460
786-0 = system: 786-0
COLO 205 = system: COLO 205
IGROV-1 = system: IGROV-1
SF-539 = system: SF-539
UACC-62 = system: UACC-62
SK-MEL-2 = system: SK-MEL-2

| Compound | GI50 (Hs-578T) | GI50 (SK-MEL-28) | GI50 (HCC 2998) | GI50 (A498) | GI50 (SR) | GI50 (HOP-92) | GI50 (SK-OV-3) | GI50 (CAKI-1) | GI50 (M19-MEL) | GI50 (PC-3) | GI50 (HT-29) | GI50 (NCI/ADR-RES) | GI50 (KM-20L2) | GI50 (NCI-H460) | GI50 (786-0) | GI50 (COLO 205) | GI50 (IGROV-1) | GI50 (SF-539) | GI50 (UACC-62) | GI50 (SK-MEL-2) |
| --- | --- | --- | --- | --- | --- | --- | --- | --- | --- | --- | --- | --- | --- | --- | --- | --- | --- | --- | --- | --- |
| CC1=NN(c2ccccc2)C(=O)C1C(=O)C(=O)Nc1ccc(C)cc1C (centres undefined) | > 100 µM (inactive) | > 100 µM (inactive) | > 100 µM (inactive) | > 100 µM (inactive) | > 100 µM (inactive) | > 94.2 µM (inactive) | > 100 µM (inactive) | > 100 µM (inactive) | > 100 µM (inactive) | > 100 µM (inactive) | > 100 µM (inactive) | > 100 µM (inactive) | > 100 µM (inactive) | > 100 µM (inactive) | > 100 µM (inactive) | > 100 µM (inactive) | > 100 µM (inactive) | > 100 µM (inactive) | > 100 µM (inactive) | > 100 µM (inactive) |
| N#CC(Cl)CS(=O)(=O)c1ccccc1 (centres undefined) | 11.8 µM (inactive) | 13.3 µM (inactive) | 15.8 µM (inactive) | 13.6 µM (inactive) | 1.8 µM (inactive) | 2.02 µM (inactive) | 19.5 µM (inactive) | 3.06 µM (inactive) | 15.8 µM (inactive) | 17.5 µM (inactive) | 7.66 µM (inactive) | – | 18.7 µM (inactive) | 18.6 µM (inactive) | 16.8 µM (inactive) | 1.75 µM (inactive) | 16.9 µM (inactive) | 14.9 µM (inactive) | 12.2 µM (inactive) | 16.1 µM (inactive) |
| O=[N+]([O-])C1C2C=CC(C2)[C@H]1c1ccco1 (some centres undefined) | – | – | > 100 µM (inactive) | > 100 µM (inactive) | > 100 µM (inactive) | 0.259 µM (active) | > 100 µM (inactive) | > 100 µM (inactive) | > 100 µM (inactive) | – | 2.19 µM (inactive) | – | > 100 µM (inactive) | > 100 µM (inactive) | > 100 µM (inactive) | > 100 µM (inactive) | > 100 µM (inactive) | > 100 µM (inactive) | > 100 µM (inactive) | > 100 µM (inactive) |
| Cc1cc(O)nc(NN2C(Cl)C(=O)C2c2ccc(O)cc2)n1 (centres undefined) | 14.5 µM (inactive) | 11.1 µM (inactive) | 11.2 µM (inactive) | 9.75 µM (inactive) | 3.08 µM (inactive) | 14.9 µM (inactive) | 11.3 µM (inactive) | 7.13 µM (inactive) | 10.5 µM (inactive) | 13.2 µM (inactive) | 6.65 µM (inactive) | – | 18.7 µM (inactive) | 4.8 µM (inactive) | 5.14 µM (inactive) | 18.7 µM (inactive) | 7.71 µM (inactive) | 8.93 µM (inactive) | 5.04 µM (inactive) | 12.6 µM (inactive) |
